Measurements published in ChEMBL document CHEMBL1147306, “Studies on inhibitors of skin tumor promotion, VI. Inhibitory effects of quinones on Epstein-Barr virus activation” (J Nat Prod, 1989).

Assays:
Assay type in all cases: cell-based
Raji [1] = assay: Inhibition of TPA-induced EBV-early antigen activation in human Raji cells at 500 molar ratio after 48 hrs by indirect immunofluorescence technique relative to TPA; details: human gammaherpesvirus 4
Raji [2] = assay: Inhibition of TPA-induced EBV-early antigen activation in human Raji cells at 100 molar ratio after 48 hrs by indirect immunofluorescence technique relative to TPA; details: human gammaherpesvirus 4
Raji [3] = assay: Inhibition of TPA-induced EBV-early antigen activation in human Raji cells at 10 molar ratio after 48 hrs by indirect immunofluorescence technique relative to TPA; details: human gammaherpesvirus 4
[4] = Cytotoxicity against human Raji cells assessed as cell viability at 1000 molar ratio; details: read-out: Activity
[5] = Cytotoxicity against human Raji cells assessed as cell viability at 500 molar ratio; details: read-out: Activity
[6] = Cytotoxicity against human Raji cells assessed as cell viability at 100 molar ratio; details: read-out: Activity
[7] = Cytotoxicity against human Raji cells assessed as cell viability at 10 molar ratio; details: read-out: Activity

Compound	EBV-EA activation % of TPA control (Raji [1]) [%]	EBV-EA activation % of TPA control (Raji [2]) [%]	EBV-EA activation % of TPA control (Raji [3]) [%]	viability at 1000 molar ratio [4] [%]	viability at 500 molar ratio [5] [%]	viability at 100 molar ratio [6] [%]	viability at 10 molar ratio [7] [%]
COCc1c(O)cc2c(c1O)C(=O)c1ccccc1C2=O	77	80.4	100	60	> 80	> 80	> 80
Cc1ccnc2c1C(=O)c1cc(O)ccc1C2=O	73.9	74.4	100	60	60	> 80	> 80
CN(C)C1=CC(=O)c2ccccc2C1=O	89.2	92.5	100	> 80	> 80	> 80	> 80
CN(C)C1=CC(=O)c2cc(O)ccc2C1=O	68.5	100	100	60	> 80	> 80	> 80
COCc1c(O)cc2c(c1O)C(=O)c1cccc(O)c1C2=O	21	51.8	100	> 80	> 80	> 80	> 80
O=C1c2ccccc2C(=O)c2occc21	0	0	59.4	0	10	10	70
COc1ccc2c(c1)C(=O)c1ccc3c(c1C2=O)OCO3	56.8	78.9	100	70	> 80	> 80	> 80
COc1cccc2c1C(=O)c1ncc(C)cc1C2=O	83	100	100	> 80	> 80	> 80	> 80
O=C1C=CC(=O)c2cc(O)ccc21	0	67.2	92.3	10	60	60	> 80
CC1C=CNC2=C1C(=O)c1cc(O)ccc1C2=O (stereo unspecified)	62.1	66.7	100	70	> 80	> 80	> 80
CC1=C(C/C=C(\C)CCC[C@H](C)CCC[C@H](C)CCCC(C)C)C(=O)c2ccccc2C1=O [PHYTONADIONE]	100	100	100	70	> 80	> 80	> 80
CN(C)C1=CC(=O)c2c(O)cccc2C1=O	60.5	61.5	89.2	> 80	> 80	> 80	> 80
COc1c(C=O)c(O)cc2c1C(=O)c1ccccc1C2=O [DAMNACANTHAL]	51.6	92.8	100	60	> 80	> 80	> 80
